Results from patent US20210228463A1, “COMPOSITION FOR FAT FORMATION INHIBITION AND BODY FAT REDUCTION, CONTAINING HYDRANGENOL AS ACTIVE INGREDIENT” (COSMAX BIO CO., LTD., priority 2019, published 2021).

What was measured:
PPARγ = assay: Western blotting of PPARγ expression in adipocytes; format: cell-based; details: 3T3-L1 differentiated for 10 days, hydrangenol 2.5 ug/ml, 24 hours, FIG. 3
Description: (§1) The mechanism of reducing triglyceride in adipocytes was examined for the hydrangenol-containing hydrangea (Hydrangea serrata) and hydrangenol. A pre-adipocyte 3T3-L1 was differentiated for 10 days and treated with hydrangea (Hydrangea serrata) (25 ug/ml) and hydrangenol (2.5 ug/ml) for 24 hours, respectively. Thereafter, the cells were lysed using a modified LIPA buffer, and each 20 ug thereof was used for analysis. p-mTOR(ab109268, Abcam), p-FOXO1(9461S, Cell Signaling), PPARγ(sc-7273, Santa Cruz), and β-actin(A5316, Sigma) primary antibodies were used for analysis, respectively.

white adipocytes = assay: Adipocyte size-reducing effects of HG; format: in vivo, mice; details: epididymal fat, HG administered; FIG. 16
Description: (§2) To analyze in vivo anti-obesity efficacy of HG, animal models of obesity were prepared. 8-week-old male C57BL/6N mice (SPF grade, 20±2 g, Orient Bio) were set into 7 groups as follows, and 10 mice per each group were tested: as normal control groups, normal mice (con) with no high fat diet and no administration, and obese mice (HFD) with induction of obesity by 30% high fat diet and no administration, and as a positive control group, obese mice with oral administration of orlistat which is an anti-obesity agent. As experimental groups, obese mice with oral administration of HG of 20 mg/kg, 40 mg/kg, or 80 mg/kg, and normal mice with oral administration of HG of 80 mg/kg were used. Mice were administered with HG at the same time with induction of obesity, and HG was administered for 5 days per week for 12 weeks. A dark: light cycle was maintained at intervals of 12 hours: 12 hours, and mice were allowed to free access to water.
For histological analysis, the epididymal fat tissues of mice were fixed in 4% paraformalin. Dehydration was performed several times through graded alcohol series and washing, and each tissue was embedded in paraffin. Each tissue section was cut at a thickness of 4 μm, and stained with hematoxylin and eosin. In order to examine the size of white adipocytes, the adipocyte area of each section was measured with cellSence software (Olympus Co., USA). […]

AMPK = assay: Expression of p-AMPK protein in adipose and liver tissues by HG; format: in vivo, mice; details: HG-treated group, Western blotting, FIG. 18
Description: as §2, with “water. […]” for “water.”
Specifically, adipose and liver tissues were mixed with a protein extraction solution, homogenized using a tissue homogenizer, and then centrifuged at 4° C., 15,000 rpm for 30 minutes to obtain a supernatant, and then a standard curve was created using the Bradford method to quantify protein. […]

[1] = test system: mammalian target of rapamycin (mTOR); assay: Western blotting of p-mTOR in adipocytes; format: cell-based; details: 3T3-L1 differentiated for 10 days, hydrangenol 2.5 ug/ml, 24 hours, FIG. 3
Description: as §1

forkhead box 01 (FoxO1) = assay: Western blotting of p-FOXO1 in adipocytes; format: cell-based; details: 3T3-L1 differentiated for 10 days, hydrangenol 2.5 ug/ml, 24 hours, FIG. 3
Description: as §1

[2] = Effects of WHS on liver and kidney (serum GOT, GPT, BUN); format: in vivo; details: obese mice (HFD) + oral orlistat
Description: (§3) To analyze in vivo anti-obesity efficacy of WHS, animal models of obesity were first prepared. 8-week-old male C57BL/6N mice (specific-pathogen-free (SPF) grade, 20±2 g, Orient Bio) were set into 7 groups as follows, and 10 mice per each group were tested: as normal control groups, normal mice (con) with no high fat diet and no administration, and obese mice (HFD) with induction of obesity by 30% high fat diet and no administration, and as a positive control group, obese mice with oral administration of orlistat which is an anti-obesity agent. As experimental groups, obese mice with oral administration of WHS of 75 mg/kg, 150 mg/kg, or 300 mg/kg, and normal mice with oral administration of WHS of 300 mg/kg were used. Further, experiments were performed by dividing mice into those which were administered with WHS for 12 weeks at the same time with induction of obesity, and those which were administered with WHS after induction of obesity for 10 weeks. WHS was orally administered for 5 days per week during the administration period. A dark: light cycle was maintained at intervals of 12 hours: 12 hours, and mice were allowed to free access to water. To examine whether WHS induced liver and kidney damage in mice, glutamic oxalacetic transaminase (GOT), glutamic pyruvate transaminase (GPT), and blood urea nitrogen (BUN) of the WHS-administered group with induction of obesity were measured by serum analysis using a biochemical analyzer (AU480 Chemistry Analyzer, Beckman coulter, Calif., USA).

[3] = Changes of blood triglyceride and blood cholesterol by WHS; format: in vivo; details: blood, obese mice (HFD) + oral orlistat
Description: as §3, with “analyze the effects of” for “examine whether”, “on blood triglyceride” for “induced liver and kidney damage in mice, glutamic oxalacetic transaminase (GOT), glutamic pyruvate transaminase (GPT),”, “cholesterol, a hematological-biochemical test” for “urea nitrogen (BUN)”, “was performed” for “were measured by serum analysis”

| BUN [2] [mg/dL] | GOT [2] [U/L] | GPT [2] [U/L] | SMILES | expression level of peroxisome proliferator-activated receptor gamma y (PPAR) (PPARγ) | adipocyte size (white adipocytes) | amount of phosphorylated AMPK protein (AMPK) | phosphorylation of mammalian target of rapamycin (mTOR) [1] | phosphorylation of forkhead box 01 (FoxO1) (forkhead box 01 (FoxO1)) | CHOL [3] [mg/dL] | HDL [3] [mg/dL] | LDL [3] [mg/dL] | TG [3] [mg/dL] |
| --- | --- | --- | --- | --- | --- | --- | --- | --- | --- | --- | --- | --- |
|  |  |  | O=C1OC(c2ccc(O)cc2)Cc2cccc(O)c21 (stereo not drawn) [HG, 8-hydroxy-3-(4-hydroxyphenyl)-3,4-dihydroisochromen-1-one] | reduction | reduced | increased | reduce | increase |  |  |  |  |
| 19.89 | 63 | 17.6 | CCCCCCCCCCC[C@@H](C[C@@H]1OC(=O)[C@H]1CCCCCC)OC(=O)[C@H](CC(C)C)NC=O [Orlistat, orlistat] |  |  |  |  |  | 115.63 | 83.70 | 8.60 | 76.40 |
